Experimental data as given in US5449676A, “Pyridazines” (priority 1991, dated 1995).
Like-named read-outs stand apart in the source and are kept apart here.

Key:
tracheal rings = assay: bronchospasmolytic effect on the chain of tracheal rings from guinea pigs in vitro; type: cell-based; conditions: for -lg[EC50 ] / EC50: negative logarithm of EC50 mol/l, 50% of maximum achievable relaxation; for [EC50 ] theophylline/[EC50 ] substance: ratio of EC50 values, theophylline vs substance; for EC50: Cavia porcellus, read-out: -lg[EC50 ] (converted)
Protocol: The bronchospasmolytic effect of the compounds on the chain of tracheal rings from guinea pigs was tested in vitro as follows:
Thus, a complete dose-effect plot for the test substance is obtained over a period of 20 to 30 minutes. The particular relaxation is expressed as a percentage fraction of the maximum relaxation achievable by administration of (-)isoprenaline (10^-6 mol/l).

[1] = system: acetylcholine-induced bronchospasm; assay: protective effect against acetylcholine-induced bronchospasm in conscious guinea pigs; type: in vivo; conditions: oral, 30 minutes after administration, percentage of protected animals; for responders at 10 µmol/kg: 10 μmol/kg
Protocol: In addition, the bronchospasmolytic effect was tested on the "protective effect against acetylcholine-induced bronchospasm in conscious guinea pigs" model:
Guinea pigs (250-350 g) are exposed in a closed Plexiglass cylinder (volume […] ) to an acetylcholine mist (0.06% in 0.9% sodium chloride solution; Heyer Use 77 ultrasonic atomizer) before administration of the substance and twice at an interval of 20 minutes after administration of the substance. The time from the start of atomization to the onset of marked breathing difficulties (in some cases hypoxic convulsion in the lateral position) is measured and called the latency time. An increase in the latency time after administration of the substance to at least three times the average latency time before administration of the substance is regarded as a protective effect, and the number of protected animals in the group is determined. […]
[…] After 30 minutes, the animals are again exposed to the acetylcholine mist and the latency times are measured. An increase in the latency time to at least three times the length is regarded as a protective effect.

[2] = system: histamine-induced bronchospasm; assay: histamine-induced bronchospasm in anesthetized guinea pigs; type: in vivo; conditions: for inhibition in vivo at 20 µmol/kg / inhibition in vivo at 60 µmol/kg / inhibition in vivo at 100 µmol/kg / inhibition in vivo at 5 µmol/kg / inhibition in vivo at 10 µmol/kg: Cavia porcellus; for inhibition in vivo at 5 µmol/kg: 5 μmol/kg; for inhibition in vivo at 10 µmol/kg: 10 μmol/kg
Protocol: One histamine spasm before administration of the substance was compared with several histamine spasms after administration of the substance. The test substances were administered intravenously (i.v.) and/or intrajejunally (i.j.).

PDE IV = assay: inhibition of PDE IV isolated from human polymorphonuclear neutrophilic cells (PMNs); type: biochemical; conditions: for PDE IV hum. PMNs -lg[IC50 ]: negative logarithm of IC50, cAMP 0.5 μmol/l; for [IC50 ] PDE III/[IC50 ] PDE IV PMNs: selectivity ratio, PDE III hum. platelets vs PDE IV hum. PMNs
Text: (§1) The specific inhibition of phosphodiesterase IV (PDE IV=high-affinity cAMP-PDE which cannot be inhibited by cGMP, rolipram-sensitive) is regarded as particularly indicative of an expected bronchospasmolytic and/or antiinflammatory effect. The specificity of the inhibition is moreover described by the ratio [IC50 ]PDE-III /[IC50 ]PDE-IV (PDE III=high-affinity cAMP-PDE which can be inhibited by cGMP) [H. Hidaka et al., Adv. Cycl. Nucl. Res. 13, 145 (1984); TiPS 5, 237 (1984); R. Weishaar et al., J. Med. Chem. 28, (1985); S. A. Harrison et al., Molec. Pharmac. 29, 506 (1986); J. Klein-Tebbe et al., Allergologie 12, 12 (1989); C. Schudt et al., Allergologie 12, 12, (1989); C. Schudt et al., Agents and Action 1991 in press; C. D. Nicholson et al., TiPS 12, (1), 19 (1991)].
(§2) For this reason, the PDE inhibition by the compounds according to the invention was determined on a PDE III isolated from human platelets and on PDE IV isolated from human polymorphonuclear neutrophilic cells (PMNs) and from the dog trachea. Phosphodiesterases III and IV are isolated by chromatography as described by Polson et al., Biochem. Pharmacol. 31, 3403-3406 (1982).
(§3) The substances are dissolved and diluted further in DMSO. 2.1 μl samples from a series of solutions diluted up to 100 fold are mixed with 212 μl of reaction mixture. The reaction mixture contains Hepes (100 mmol/l), DTE (5 mmol/l), MgCl2 (5 mmol/l), CaCl2 (10 μmol/l), BSA fraction V 0.5 mg, ml, cAMP 0.5 μmol/l, 2,8-^3 H-cAMP 250,000 cpm/ml (0.3 μCi/ml, S.A. […]), SV (snake venom) 25 μg/212 μl of test mixture.

PDE III = target: T1, PDE III (Homo sapiens, UniProt Q14432); assay: inhibition of PDE III isolated from human platelets; type: biochemical; conditions: negative logarithm of IC50; cAMP 0.5 μmol/l; read-out: PDE III hum. platelets -lg[IC50 ] (converted)
T1 construct: PDE III isolated from human platelets; from tissue; host or cells: human platelets
T1 sequence (Q14432 whole entry): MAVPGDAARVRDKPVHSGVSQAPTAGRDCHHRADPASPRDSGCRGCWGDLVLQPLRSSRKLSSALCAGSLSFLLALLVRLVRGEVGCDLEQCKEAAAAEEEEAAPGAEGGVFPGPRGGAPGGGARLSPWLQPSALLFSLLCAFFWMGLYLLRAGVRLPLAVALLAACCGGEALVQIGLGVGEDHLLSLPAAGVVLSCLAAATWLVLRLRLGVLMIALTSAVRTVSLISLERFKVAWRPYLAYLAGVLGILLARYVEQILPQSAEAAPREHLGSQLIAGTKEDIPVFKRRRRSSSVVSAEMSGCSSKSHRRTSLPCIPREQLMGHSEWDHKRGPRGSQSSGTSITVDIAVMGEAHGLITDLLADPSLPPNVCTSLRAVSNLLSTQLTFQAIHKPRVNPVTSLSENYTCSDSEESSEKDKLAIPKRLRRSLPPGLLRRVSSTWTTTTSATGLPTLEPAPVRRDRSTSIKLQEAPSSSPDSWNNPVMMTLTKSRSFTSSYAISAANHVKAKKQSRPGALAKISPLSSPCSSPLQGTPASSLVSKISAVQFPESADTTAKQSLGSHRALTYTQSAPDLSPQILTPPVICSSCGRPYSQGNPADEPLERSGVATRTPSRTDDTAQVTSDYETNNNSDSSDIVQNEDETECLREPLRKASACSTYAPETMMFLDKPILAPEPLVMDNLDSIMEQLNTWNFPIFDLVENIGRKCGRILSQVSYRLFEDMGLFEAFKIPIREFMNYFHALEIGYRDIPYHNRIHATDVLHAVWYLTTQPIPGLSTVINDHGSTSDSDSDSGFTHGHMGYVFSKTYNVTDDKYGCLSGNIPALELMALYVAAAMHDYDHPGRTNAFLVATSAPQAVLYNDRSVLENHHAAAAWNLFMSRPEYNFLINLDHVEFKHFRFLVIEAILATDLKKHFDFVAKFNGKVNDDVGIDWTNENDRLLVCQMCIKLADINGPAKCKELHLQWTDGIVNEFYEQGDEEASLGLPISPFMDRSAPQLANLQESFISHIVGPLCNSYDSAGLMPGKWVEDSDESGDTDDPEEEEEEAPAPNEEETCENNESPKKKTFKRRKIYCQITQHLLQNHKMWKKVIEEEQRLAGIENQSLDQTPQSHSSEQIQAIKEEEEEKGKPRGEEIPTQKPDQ
Text: as §1, §2, §3

[3] = Cavia porcellus, 0.5 h, 100 μmol/kg
[4] = 1 h, read-out: % inhibition (0-1 h) of the histamine-induced decrease in Vmax
[5] = 1 h, read-out: % inhibition after 1 h of the histamine-induced decrease in Vmax
[6] = iv, 1 h, read-out: % inhibition (0-1 h) of the histamine-induced decrease in Vmax
[7] = iv, 1 h, read-out: % inhibition after 1 h of the histamine-induced decrease in Vmax
[8] = iv, after 1 h, read-out: % inhibition after 1 h of the histamine-induced decrease in Vmax
[9] = iv, average 0-1 h after administration, read-out: % inhibition (0-1 h) of the histamine-induced decrease in Vmax
[10] = iv, 20 μmol/kg, after 1 h, read-out: % inhibition after 1 h of the histamine-induced decrease in Vmax
[11] = iv, 20 μmol/kg, average 0-1 h after administration, read-out: % inhibition (0-1 h) of the histamine-induced decrease in Vmax

Compound: 3-amino-6-(4-difluoromethoxy-3-ethoxyphenyl)pyridazine 2-oxide [Serial No. 19]
- -lg[EC50 ] (tracheal rings): 5.03
- [EC50 ] theophylline/[EC50 ] substance (tracheal rings): 14.5
- % protective effect ([1]; 100 μmol/kg): 35%

Compound: 3-amino-6-(4-difluoromethoxy-3-methoxyphenyl)pyridazine 2-oxide [Serial No. 20]
- -lg[EC50 ] (tracheal rings): 5.39
- [EC50 ] theophylline/[EC50 ] substance (tracheal rings): 33.2
- % protective effect ([1]; 100 μmol/kg): 50%

Compound: 3-amino-6-(4-difluoromethoxy-3-methoxyphenyl)pyridazine [Serial No. 11]
- -lg[EC50 ] (tracheal rings): 5.18
- [EC50 ] theophylline/[EC50 ] substance (tracheal rings): 20.4
- % protective effect ([1]; 30 μmol/kg): 35%
- % protective effect ([1]; 100 μmol/kg, listed as 4): 35%
- % protective effect ([1]; 100 μmol/kg, listed as 6): 85%
- % inhibition after 1 h of the histamine-induced decrease in Vmax ([2]; i.v., 20 μmol/kg, after 1 h): is
- % inhibition (0-1 h) of the histamine-induced decrease in Vmax ([2]; i.v., 20 μmol/kg, average 0-1 h after administration): 22%

Compound: COc1cc(-c2ccc(N)nn2)ccc1OC(C)C [Serial No. 5, 3-amino-6-[3-methoxy-4-(1-methylethoxy)phenyl]pyridazine]
- responders at 100 µmol/kg [1, 3]: 45%

Compound: Cn1c(=O)c2[nH]cnc2n(C)c1=O [Theophylline, reference compound]
- PDE IV hum. PMNs -lg[IC50 ] (PDE IV): 3.77
- responders at 100 µmol/kg [1, 3]: 20%
- responders at 200 µmol/kg ([1]; Cavia porcellus, 0.5 h, 200 μmol/kg): 40%
- responders at 400 µmol/kg ([1]; Cavia porcellus, 0.5 h, 400 μmol/kg): 70%
- inhibition in vivo at 20 µmol/kg [2, 4]: 11%
- inhibition in vivo at 60 µmol/kg [2, 4]: 37%
- inhibition in vivo at 100 µmol/kg [2, 4]: 45%
- inhibition in vivo at 20 µmol/kg [2, 5]: 8%
- inhibition in vivo at 60 µmol/kg [2, 5]: 42%
- inhibition in vivo at 100 µmol/kg [2, 5]: 44%
- inhibition in vivo at 20 µmol/kg [2, 6]: 13%
- inhibition in vivo at 60 µmol/kg [2, 6]: 25%
- inhibition in vivo at 100 µmol/kg [2, 6]: 34%
- inhibition in vivo at 20 µmol/kg [2, 7]: 5%
- inhibition in vivo at 60 µmol/kg [2, 7]: 12%
- inhibition in vivo at 100 µmol/kg [2, 7]: 22%

Compound: Nc1ccc(-c2ccc(OC(F)F)c(OC3CCCC3)c2)nn1 [compound 14]
- EC50 (tracheal rings): 6.61 µM
- [EC50 ] theophylline/[EC50 ] substance (tracheal rings): 20.4
- PDE IV hum. PMNs -lg[IC50 ] (PDE IV): 7.15
- [IC50 ] PDE III/[IC50 ] PDE IV PMNs (PDE IV): 1466
- IC50 (PDE III): 53.7 µM

Compound: CC(C)Oc1cc(-c2ccc(N)nn2)ccc1OC(F)F [compound 15]
- PDE IV hum. PMNs -lg[IC50 ] (PDE IV): 6.78
- [IC50 ] PDE III/[IC50 ] PDE IV PMNs (PDE IV): 794
- IC50 (PDE III): 107 µM

Compound: Nc1ccc(-c2ccc(OC(F)F)c(OCC(F)(F)F)c2)nn1 [compound 16]
- PDE IV hum. PMNs -lg[IC50 ] (PDE IV): 6.88
- [IC50 ] PDE III/[IC50 ] PDE IV PMNs (PDE IV): 2515
- IC50 (PDE III): 331 µM

Compound: CC(C)COc1cc(-c2ccc(N)nn2)ccc1OC(F)F [compound 17]
- PDE IV hum. PMNs -lg[IC50 ] (PDE IV): 6,96
- [IC50 ] PDE III/[IC50 ] PDE IV PMNs (PDE IV): 1466
- IC50 (PDE III): 151 µM

Compound: Nc1ccc(-c2ccc(OC(F)F)c(OCC3CC3)c2)nn1 [compound 18]
- PDE IV hum. PMNs -lg[IC50 ] (PDE IV): 7.47
- [IC50 ] PDE III/[IC50 ] PDE IV PMNs (PDE IV): 4265
- responders at 10 µmol/kg ([1]; Cavia porcellus, 0.5 h): 75%
- responders at 100 µmol/kg [1, 3]: 75%
- inhibition in vivo at 5 µmol/kg [2, 8]: 49%
- inhibition in vivo at 5 µmol/kg [2, 9]: 40%
- inhibition in vivo at 10 µmol/kg [2, 8]: 38%
- inhibition in vivo at 10 µmol/kg [2, 9]: 33%
- inhibition in vivo at 20 µmol/kg [2, 10]: 35%
- inhibition in vivo at 20 µmol/kg [2, 11]: 31%
- inhibition in vivo at 10 µmol/kg ([2]; i.j. admin., after 1 h, read-out: % inhibition after 1 h of the histamine-induced decrease in Vmax): 43%
- inhibition in vivo at 10 µmol/kg ([2]; i.j. admin., average 0-1 h after administration, read-out: % inhibition (0-1 h) of the histamine-induced decrease in Vmax): 32%
- IC50 (PDE III): 145 µM

Compound: CCOc1ccc(-c2ccc(N)[n+]([O-])n2)cc1OC(F)F [compound 21]
- EC50 (tracheal rings): 0.562 µM
- [EC50 ] theophylline/[EC50 ] substance (tracheal rings): 240
- PDE IV hum. PMNs -lg[IC50 ] (PDE IV): 5.19
- [IC50 ] PDE III/[IC50 ] PDE IV PMNs (PDE IV): 6.9
- IC50 (PDE III): 44.7 µM

Compound: CC(C)Oc1cc(-c2ccc(N)[n+]([O-])n2)ccc1OC(F)F [compound 22]
- EC50 (tracheal rings): 3.02 µM
- [EC50 ] theophylline/[EC50 ] substance (tracheal rings): 44.7
- PDE IV hum. PMNs -lg[IC50 ] (PDE IV): 6.26
- [IC50 ] PDE III/[IC50 ] PDE IV PMNs (PDE IV): 21.9
- responders at 100 µmol/kg [1, 3]: 60%
- IC50 (PDE III): 12 µM

Compound: CC(C)COc1cc(-c2ccc(N)[n+]([O-])n2)ccc1OC(F)F [compound 23]
- EC50 (tracheal rings): 3.02 µM
- [EC50 ] theophylline/[EC50 ] substance (tracheal rings): 44.7
- PDE IV hum. PMNs -lg[IC50 ] (PDE IV): 7.03
- [IC50 ] PDE III/[IC50 ] PDE IV PMNs (PDE IV): 1350
- IC50 (PDE III): 126 µM

Compound: Nc1ccc(-c2ccc(OC(F)F)c(OC3CCCC3)c2)n[n+]1[O-] [compound 24]
- EC50 (tracheal rings): 2.04 µM
- [EC50 ] theophylline/[EC50 ] substance (tracheal rings): 65.5
- PDE IV hum. PMNs -lg[IC50 ] (PDE IV): 7.24
- [IC50 ] PDE III/[IC50 ] PDE IV PMNs (PDE IV): 832
- responders at 100 µmol/kg [1, 3]: 60%
- IC50 (PDE III): 47.9 µM

Compound: Nc1ccc(-c2ccc(OC(F)F)c(OCC(F)(F)F)c2)n[n+]1[O-] [compound 25]
- EC50 (tracheal rings): 0.355 µM
- [EC50 ] theophylline/[EC50 ] substance (tracheal rings): 380
- PDE IV hum. PMNs -lg[IC50 ] (PDE IV): 6.42
- [IC50 ] PDE III/[IC50 ] PDE IV PMNs (PDE IV): 186
- responders at 10 µmol/kg ([1]; Cavia porcellus, 0.5 h): 45%
- responders at 100 µmol/kg [1, 3]: 70%
- inhibition in vivo at 20 µmol/kg [2, 10]: 33%
- inhibition in vivo at 20 µmol/kg [2, 11]: 34%
- IC50 (PDE III): 70.8 µM
